Assay results taken from ChEMBL document CHEMBL2163236, “7-Oxo-[1,4]oxazino[2,3,4-ij]quinoline-6-carboxamides as selective CB(2) cannabinoid receptor ligands: structural investigations around a novel class of full agonists” (J Med Chem, 2012).

Target: Cannabinoid receptor 1 (Homo sapiens, UniProt P21554)
Test: Displacement of [3H]CP-55940 from human recombinant CB1 receptor expressed in CHO cell membranes incubated for 90 mins by scintillation counting

Sequence of Cannabinoid receptor 1 (Homo sapiens, UniProt P21554) (P21554 whole entry): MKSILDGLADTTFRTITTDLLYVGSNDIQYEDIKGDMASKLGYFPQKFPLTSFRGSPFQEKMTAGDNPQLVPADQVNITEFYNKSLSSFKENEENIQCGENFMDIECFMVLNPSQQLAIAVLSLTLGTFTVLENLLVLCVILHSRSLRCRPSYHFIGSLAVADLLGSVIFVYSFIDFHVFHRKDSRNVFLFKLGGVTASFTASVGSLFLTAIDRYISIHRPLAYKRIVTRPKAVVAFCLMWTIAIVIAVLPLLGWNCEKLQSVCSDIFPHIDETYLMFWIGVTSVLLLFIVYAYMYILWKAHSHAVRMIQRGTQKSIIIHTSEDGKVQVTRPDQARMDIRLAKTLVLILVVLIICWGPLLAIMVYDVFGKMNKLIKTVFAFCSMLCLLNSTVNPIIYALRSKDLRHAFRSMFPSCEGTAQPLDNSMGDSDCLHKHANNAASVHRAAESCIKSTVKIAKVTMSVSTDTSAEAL

Row | SMILES | Ki
1 | CCC1COc2cccc3c(=O)c(C(=O)Nc4nccs4)cn1c23 (racemic) | 1360 nM
2 | CCC1COc2cccc3c(=O)c(C(=O)NC4CCCCCC4)cn1c23 (racemic) | 433 nM
3 | CC(C)C[C@@H]1COc2cccc3c(=O)c(C(=O)NC45CC6CC(CC(C6)C4)C5)cn1c23 | > 10000 nM
4 | Cc1ccc(C2COc3cccc4c(=O)c(C(=O)NC5CCCCC5)cn2c34)cc1 (racemic) | 4110 nM
5 | CC[C@H]1COc2cccc3c(=O)c(C(=O)NC45CC6CC(CC(C6)C4)C5)cn1c23 | 578 nM
6 | CCCC1COc2cccc3c(=O)c(C(=O)NC4CCCCC4)cn1c23 (racemic) | 10.2 nM
7 | CCC1COc2c(F)ccc3c(=O)c(C(=O)NC45CC6CC(CC(C6)C4)C5)cn1c23 (racemic) | 389 nM
8 | O=C(NC1CCCCCC1)c1cn2c3c(cccc3c1=O)OCC2C1CC1 (racemic) | 91 nM
9 | CC[C@@H]1COc2cccc3c(=O)c(C(=O)NC4CCCCCC4)cn1c23 | 105 nM
10 | CCC1COc2cccc3c(=O)c(C(=O)NC45CC6CC(CC(C6)C4)C5)cn1c23 (racemic) | 689 nM

Target: T1, Cannabinoid receptor 2 (Homo sapiens, UniProt P34972)
Test: Agonist activity at human recombinant CB2 receptor expressed in CHO cell membranes assessed as inhibition of forskolin-induced cAMP accumulation
Format: functional, cell-based

T1 sequence (P34972 whole entry): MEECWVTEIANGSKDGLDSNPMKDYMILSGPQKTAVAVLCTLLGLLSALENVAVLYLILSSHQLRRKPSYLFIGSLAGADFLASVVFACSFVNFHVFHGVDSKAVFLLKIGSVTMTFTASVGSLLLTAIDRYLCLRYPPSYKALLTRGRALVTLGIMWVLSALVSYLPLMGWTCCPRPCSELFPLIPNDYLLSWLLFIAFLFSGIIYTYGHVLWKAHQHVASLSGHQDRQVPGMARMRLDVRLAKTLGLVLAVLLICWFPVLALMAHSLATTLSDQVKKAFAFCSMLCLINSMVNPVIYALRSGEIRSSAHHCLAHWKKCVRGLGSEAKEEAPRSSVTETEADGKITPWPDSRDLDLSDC

Row | SMILES | IC50
11 | CCC1COc2cccc3c(=O)c(C(=O)Nc4nccs4)cn1c23 (racemic) | 1130 nM
12 | CCC1COc2cccc3c(=O)c(C(=O)NC4CCCCCC4)cn1c23 (racemic) | 42 nM
13 | CC(C)C[C@@H]1COc2cccc3c(=O)c(C(=O)NC45CC6CC(CC(C6)C4)C5)cn1c23 | 36 nM
14 | Cc1ccc(C2COc3cccc4c(=O)c(C(=O)NC5CCCCC5)cn2c34)cc1 (racemic) | 2460 nM
15 | CC[C@H]1COc2cccc3c(=O)c(C(=O)NC45CC6CC(CC(C6)C4)C5)cn1c23 | 413 nM
16 | CCCC1COc2cccc3c(=O)c(C(=O)NC4CCCCC4)cn1c23 (racemic) | 1.53 nM
17 | CCC1COc2c(F)ccc3c(=O)c(C(=O)NC45CC6CC(CC(C6)C4)C5)cn1c23 (racemic) | 27 nM
18 | O=C(NC1CCCCCC1)c1cn2c3c(cccc3c1=O)OCC2C1CC1 (racemic) | 12.4 nM
19 | CC[C@@H]1COc2cccc3c(=O)c(C(=O)NC4CCCCCC4)cn1c23 | 17.2 nM
20 | CCC1COc2cccc3c(=O)c(C(=O)NC45CC6CC(CC(C6)C4)C5)cn1c23 (racemic) | 38 nM

Target: T1, Cannabinoid receptor 2
Test: Displacement of [3H]CP-55940 from human recombinant CB2 receptor expressed in CHO cell membranes incubated for 60 mins by scintillation counting

Row | SMILES | Ki
21 | CCC1COc2cccc3c(=O)c(C(=O)Nc4nccs4)cn1c23 (racemic) | 265 nM
22 | CCC1COc2cccc3c(=O)c(C(=O)NC4CCCCCC4)cn1c23 (racemic) | 9.24 nM
23 | CC(C)C[C@@H]1COc2cccc3c(=O)c(C(=O)NC45CC6CC(CC(C6)C4)C5)cn1c23 | 9.24 nM
24 | Cc1ccc(C2COc3cccc4c(=O)c(C(=O)NC5CCCCC5)cn2c34)cc1 (racemic) | 468 nM
25 | CC[C@H]1COc2cccc3c(=O)c(C(=O)NC45CC6CC(CC(C6)C4)C5)cn1c23 | 88 nM
26 | CCCC1COc2cccc3c(=O)c(C(=O)NC4CCCCC4)cn1c23 (racemic) | 0.32 nM
27 | CCC1COc2c(F)ccc3c(=O)c(C(=O)NC45CC6CC(CC(C6)C4)C5)cn1c23 (racemic) | 7.34 nM
28 | O=C(NC1CCCCCC1)c1cn2c3c(cccc3c1=O)OCC2C1CC1 (racemic) | 3.12 nM
29 | CC[C@@H]1COc2cccc3c(=O)c(C(=O)NC4CCCCCC4)cn1c23 | 4.12 nM
30 | CCC1COc2cccc3c(=O)c(C(=O)NC45CC6CC(CC(C6)C4)C5)cn1c23 (racemic) | 7.83 nM

Target: T2, Cannabinoid receptor 2 (Rattus norvegicus, UniProt Q9QZN9)
T2 sequence (Q9QZN9 whole entry): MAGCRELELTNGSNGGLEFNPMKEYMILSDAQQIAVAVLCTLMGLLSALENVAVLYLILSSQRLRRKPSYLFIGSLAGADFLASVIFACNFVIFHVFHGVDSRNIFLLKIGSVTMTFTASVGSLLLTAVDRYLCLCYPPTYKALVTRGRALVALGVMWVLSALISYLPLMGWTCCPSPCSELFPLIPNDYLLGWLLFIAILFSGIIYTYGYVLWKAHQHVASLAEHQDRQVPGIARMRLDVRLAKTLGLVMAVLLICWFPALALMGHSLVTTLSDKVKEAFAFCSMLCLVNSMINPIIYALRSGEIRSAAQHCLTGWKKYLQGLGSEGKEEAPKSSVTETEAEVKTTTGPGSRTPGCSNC
Test: Displacement of [3H]CP-55940 from CB2 receptor in Sprague-Dawley rat spleen by scintillation counting

Row | SMILES | Ki
31 | CCC1COc2cccc3c(=O)c(C(=O)Nc4nccs4)cn1c23 (racemic) | 324 nM
32 | CCC1COc2cccc3c(=O)c(C(=O)NC4CCCCCC4)cn1c23 (racemic) | 11.4 nM
33 | CC(C)C[C@@H]1COc2cccc3c(=O)c(C(=O)NC45CC6CC(CC(C6)C4)C5)cn1c23 | 10.2 nM
34 | Cc1ccc(C2COc3cccc4c(=O)c(C(=O)NC5CCCCC5)cn2c34)cc1 (racemic) | 547 nM
35 | CC[C@H]1COc2cccc3c(=O)c(C(=O)NC45CC6CC(CC(C6)C4)C5)cn1c23 | 97 nM
36 | CCCC1COc2cccc3c(=O)c(C(=O)NC4CCCCC4)cn1c23 (racemic) | 1.84 nM
37 | CCC1COc2c(F)ccc3c(=O)c(C(=O)NC45CC6CC(CC(C6)C4)C5)cn1c23 (racemic) | 9.51 nM
38 | O=C(NC1CCCCCC1)c1cn2c3c(cccc3c1=O)OCC2C1CC1 (racemic) | 3.52 nM
39 | CC[C@@H]1COc2cccc3c(=O)c(C(=O)NC4CCCCCC4)cn1c23 | 6.03 nM
40 | CCC1COc2cccc3c(=O)c(C(=O)NC45CC6CC(CC(C6)C4)C5)cn1c23 (racemic) | 13.5 nM

Species: Homo sapiens
Test: Selectivity ratio of Ki for human recombinant CB1 receptor to KI for human recombinant CB2 receptor

Row | SMILES | Ratio Ki
41 | CCC1COc2cccc3c(=O)c(C(=O)Nc4nccs4)cn1c23 (racemic) | 5
42 | CCC1COc2cccc3c(=O)c(C(=O)NC4CCCCCC4)cn1c23 (racemic) | 47
43 | CC(C)C[C@@H]1COc2cccc3c(=O)c(C(=O)NC45CC6CC(CC(C6)C4)C5)cn1c23 | > 1080
44 | Cc1ccc(C2COc3cccc4c(=O)c(C(=O)NC5CCCCC5)cn2c34)cc1 (racemic) | 8.78
45 | CC[C@H]1COc2cccc3c(=O)c(C(=O)NC45CC6CC(CC(C6)C4)C5)cn1c23 | 7
46 | CCCC1COc2cccc3c(=O)c(C(=O)NC4CCCCC4)cn1c23 (racemic) | 32
47 | CCC1COc2c(F)ccc3c(=O)c(C(=O)NC45CC6CC(CC(C6)C4)C5)cn1c23 (racemic) | 53
48 | O=C(NC1CCCCCC1)c1cn2c3c(cccc3c1=O)OCC2C1CC1 (racemic) | 29
49 | CC[C@@H]1COc2cccc3c(=O)c(C(=O)NC4CCCCCC4)cn1c23 | 25
50 | CCC1COc2cccc3c(=O)c(C(=O)NC45CC6CC(CC(C6)C4)C5)cn1c23 (racemic) | 88

Target: Cannabinoid receptor 1 (Rattus norvegicus, UniProt P20272)
Test: Displacement of [3H]CP-55940 from CB1 receptor in Sprague-Dawley rat brain by scintillation counting

Sequence of Cannabinoid receptor 1 (Rattus norvegicus, UniProt P20272) (P20272 whole entry): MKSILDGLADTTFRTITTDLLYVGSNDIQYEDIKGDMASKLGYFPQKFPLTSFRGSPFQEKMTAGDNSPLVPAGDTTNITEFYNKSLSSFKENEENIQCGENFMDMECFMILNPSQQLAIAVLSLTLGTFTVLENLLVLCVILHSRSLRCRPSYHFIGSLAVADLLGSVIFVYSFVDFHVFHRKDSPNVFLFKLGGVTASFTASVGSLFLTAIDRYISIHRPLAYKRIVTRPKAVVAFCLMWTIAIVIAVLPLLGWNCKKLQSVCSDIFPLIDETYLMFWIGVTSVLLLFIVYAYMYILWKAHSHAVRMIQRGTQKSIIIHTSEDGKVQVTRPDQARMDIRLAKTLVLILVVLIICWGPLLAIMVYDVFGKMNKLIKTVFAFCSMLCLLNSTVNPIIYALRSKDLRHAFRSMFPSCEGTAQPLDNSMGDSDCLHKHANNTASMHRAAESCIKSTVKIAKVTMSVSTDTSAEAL

Row | SMILES | Ki
51 | CCC1COc2cccc3c(=O)c(C(=O)Nc4nccs4)cn1c23 (racemic) | 1620 nM
52 | CCC1COc2cccc3c(=O)c(C(=O)NC4CCCCCC4)cn1c23 (racemic) | 498 nM
53 | CC(C)C[C@@H]1COc2cccc3c(=O)c(C(=O)NC45CC6CC(CC(C6)C4)C5)cn1c23 | > 10000 nM
54 | Cc1ccc(C2COc3cccc4c(=O)c(C(=O)NC5CCCCC5)cn2c34)cc1 (racemic) | 4570 nM
55 | CC[C@H]1COc2cccc3c(=O)c(C(=O)NC45CC6CC(CC(C6)C4)C5)cn1c23 | 653 nM
56 | CCCC1COc2cccc3c(=O)c(C(=O)NC4CCCCC4)cn1c23 (racemic) | 13.4 nM
57 | CCC1COc2c(F)ccc3c(=O)c(C(=O)NC45CC6CC(CC(C6)C4)C5)cn1c23 (racemic) | 452 nM
58 | O=C(NC1CCCCCC1)c1cn2c3c(cccc3c1=O)OCC2C1CC1 (racemic) | 101 nM
59 | CC[C@@H]1COc2cccc3c(=O)c(C(=O)NC4CCCCCC4)cn1c23 | 126 nM
60 | CCC1COc2cccc3c(=O)c(C(=O)NC45CC6CC(CC(C6)C4)C5)cn1c23 (racemic) | 725 nM
